This is an account of results in EP2208725A1, “Novel specific inhibitors of ubiquitin specific protease 7, the pharmaceutical compositions thereof and their therapeutic applications” (Hybrigenics S.A., priority 2009, dated 2010).

In one assay the target is T1, UCH-L1 (Homo sapiens, UniProt P09936).
T1 sequence (P09936 1-223): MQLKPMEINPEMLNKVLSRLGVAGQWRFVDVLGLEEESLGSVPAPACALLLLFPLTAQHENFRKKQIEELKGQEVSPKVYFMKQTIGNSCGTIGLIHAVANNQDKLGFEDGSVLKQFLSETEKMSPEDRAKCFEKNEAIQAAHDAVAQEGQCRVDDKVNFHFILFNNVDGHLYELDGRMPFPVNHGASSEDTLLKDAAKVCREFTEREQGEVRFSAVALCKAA
The assay can be described thus: UCH-L1 activity assay (Ub-AMC). The format is biochemical. The conditions noted are these: 400 nM Ub-AMC, 2.5 nM enzyme; compounds tested from 200 µM to 91 nM; unit inferred; read-out: Inhibition of cysteine protease activities: Uch-L1. The procedure:
UCH-L1 was diluted in USP buffer (50 mM Tris HCl; 0.5 mM EDTA; 5 mM DTT; 0.01% Triton X-100; Bovine Serum Albumin 0.05 mg.ml^-1 pH7.6). Compounds stocks (100 mM) were stored at -20°C in DMSO. Compounds were tested at different concentrations: from 200 µM to 91 nM. Reactions were performed as duplicates in Black LJL 96 well plates (HE microplates; Molecular Devices; 20 µl final reaction volume). The substrate concentration for UCH-L1 was 400 nM Ub-AMC (Boston Biochem). The concentration of the enzyme (UCH-L1) in specificity assays was 2.5 nM. The concentrations were determined in order to perform specificity assays under initial velocities at fixed substrate concentration. Compounds were pre-incubated with enzymes for 30 minutes at 25°C. Reactions were initiated by addition of substrate to the plates containing the enzymes (+/- compounds) diluted in assay buffer. Reactions were incubated for 60 minutes at 37°C. Reactions were stopped by adding acetic acid (100 mM final). Readings were performed on a Pherastar Fluorescent Reader (BMG). λ […]. Data (mean values +/- standard deviation) were analyzed as % of control (no compound) and plotted as percentage versus the Log of the compound concentration using GraphPad (Prism). Data were fitted to a sigmoidal model (variable slope).

Another assay has as its target T2, human USP7 (Homo sapiens, UniProt Q93009).
T2 construct: Full-length wild-type human USP7; His (N); made in house; host or cells: Spodoptera frugiperda Sf9 (baculovirus, pFastBac-HT)
Description: USP7 activity assay (Ub-AMC). The conditions noted are these: 300 nM Ub-AMC, 100 pM enzyme; compounds tested from 200 µM to 91 nM; unit inferred; read-out: Inhibition of cysteine protease activities: USP7. It is filed as biochemical. From the text:
The cDNA encoding USP7 was obtained by PCR amplification from placenta mRNA. USP7 cDNA was subcloned by PCR into a baculovirus expression vector (pFastBac-HT; Invitrogen). Full-length wild-type human USP7 and its catalytic mutant (cysteine 223 replaced by alanine, C223A) were produced as N-terminally His-tagged fusions in Spodoptera frugiperda cells (Sf9, Invitrogen), using the Bac-to-Bac Baculovirus system from Invitrogen according to the manufacturer's instructions. pFastBac-HT-B-USP7 was used to transform DH10bac cells (Invitrogen), and blue/white selection was carried out on X-gal/IPTG agar plates. Bacmid DNA was prepared by an alkaline lysis procedure. The integrity of the bacmid minipreps and their orientation were checked by PCR, using generic and specific primers. Sf9 cells were cultured in InsectXpress medium (Cambrex) at 27°C and transfected with the corresponding bacmid, using GeneShuttle 40 (Q-BIOgen). Viruses were recovered in the supernatant 72 h after transfection. Viruses were amplified by infecting Sf9 cells in 50 ml InsectXpress medium in a 150 cm^2 cell culture flask with 500 µl of the supernatant from transfected Sf9 cells. Following the second round of amplification, Sf9 cells were recovered by rapid SDS lysis, boiled for 5 min at 100°C, sonicated briefly and centrifuged for 20 min at 14,000 g. Expression levels in infected Sf9 cells were compared with those in uninfected cells. […] Beads were extensively washed (50 mM sodium phosphate buffer pH 7.0, 500 mM NaCl, 10 mM Imidazole, 0.5% Triton X-100 and 10% glycerol) and bound proteins were eluted in wash buffer supplemented with 250 mM Imidazole (Sigma). Eluted fractions were resolved on 4-12% NuPAGE gels (Novex, Invitrogen). Fractions containing high concentrations of purified proteins (purity > 95%) were dialyzed (20 mM Tris HCl pH 7.6, 200 mM NaCl, 1 mM DTT, 1 mM EDTA and 10% glycerol) were aliquoted and snap frozen in liquid nitrogen before storage at -80°C.
USP7 was diluted in USP buffer (50 mM Tris HCl; 0.5 mM EDTA; 5 mM DTT; 0.01 % Triton X-100; Bovine Serum Albumin 0.05 mg.ml^-1 pH7.6). Compounds stocks (100 mM) were stored at -20°C in DMSO. Compounds were tested at different concentrations: from 200 µM to 91 nM.
Reactions were performed as duplicates in Black LJL 96 well plates (HE microplates; Molecular Devices; 20 µl final reaction volume). The substrate concentration for USP7 was 300 nM Ub-AMC (Chem. Biol., 2003, 10, p. 837-846) (Boston Biochem). The concentrations of the enzyme (USP7) in specificity assays was 100 pM. The concentrations were determined in order to perform specificity assays under initial velocities at fixed substrate concentration. Compounds were pre-incubated with enzymes for 30 minutes at 25°C. Reactions were initiated by addition of substrate to the plates containing the enzymes (+/- compounds) diluted in assay buffer. Reactions were incubated for 60 minutes at 37°C. Reactions were stopped by adding acetic acid (100 mM final). Readings were performed on a Pherastar Fluorescent Reader (BMG). λ […]. Data (mean values +/- standard deviation) were analyzed as % of control (no compound) and plotted as percentage versus the Log of the compound concentration using GraphPad (Prism). Data were fitted to a sigmoidal model (variable slope).

Some results are limits rather than exact numbers.

T2 sequence (Q93009 whole entry): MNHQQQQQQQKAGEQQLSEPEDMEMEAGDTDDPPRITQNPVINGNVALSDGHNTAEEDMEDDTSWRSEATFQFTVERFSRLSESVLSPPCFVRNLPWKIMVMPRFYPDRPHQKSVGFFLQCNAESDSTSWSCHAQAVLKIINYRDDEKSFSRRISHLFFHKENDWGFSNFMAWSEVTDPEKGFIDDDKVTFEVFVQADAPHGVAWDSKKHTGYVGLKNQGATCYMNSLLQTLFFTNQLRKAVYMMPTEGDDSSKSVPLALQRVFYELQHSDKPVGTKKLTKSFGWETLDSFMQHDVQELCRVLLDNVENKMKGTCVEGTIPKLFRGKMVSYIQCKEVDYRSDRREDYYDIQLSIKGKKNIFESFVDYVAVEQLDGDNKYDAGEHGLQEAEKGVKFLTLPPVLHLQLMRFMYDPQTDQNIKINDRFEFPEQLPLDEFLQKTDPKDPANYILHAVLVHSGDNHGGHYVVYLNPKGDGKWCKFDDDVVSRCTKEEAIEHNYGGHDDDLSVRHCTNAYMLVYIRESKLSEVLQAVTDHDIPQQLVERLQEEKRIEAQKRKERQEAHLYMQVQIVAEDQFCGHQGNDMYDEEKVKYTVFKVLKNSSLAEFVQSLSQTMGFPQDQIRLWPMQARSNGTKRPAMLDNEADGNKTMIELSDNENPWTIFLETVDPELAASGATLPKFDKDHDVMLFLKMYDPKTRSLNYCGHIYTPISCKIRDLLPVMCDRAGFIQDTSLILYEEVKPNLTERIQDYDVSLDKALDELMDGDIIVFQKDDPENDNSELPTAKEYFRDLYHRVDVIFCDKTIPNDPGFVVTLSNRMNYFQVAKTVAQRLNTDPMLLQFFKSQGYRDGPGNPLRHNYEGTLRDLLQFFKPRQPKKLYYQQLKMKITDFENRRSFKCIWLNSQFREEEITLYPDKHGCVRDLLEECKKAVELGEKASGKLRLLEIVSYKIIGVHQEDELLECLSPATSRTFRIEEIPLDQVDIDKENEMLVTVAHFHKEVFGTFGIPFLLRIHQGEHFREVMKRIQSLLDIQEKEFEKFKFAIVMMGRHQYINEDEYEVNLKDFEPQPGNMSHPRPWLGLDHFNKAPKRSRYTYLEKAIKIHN

Turning to `CC(=O)C1=C(O)C(=O)N(CCc2ccc(Cl)cc2)C1c1ccc(Br)cc1` (centres unmarked) [Example 25, 4-acetyl-5-(4-bromo-phenyl)-1-[2-(4-chloro-phenyl)-ethyl]-3-hydroxy-1,5-dihydro-pyrrol-2-one], the IC50 at UCH-L1 is greater than 200 µM; on human USP7 it was 3.1 µM.

Regarding `CC(=O)C1=C(O)C(=O)N(CCc2ccc(Br)cc2)C1c1ccc(Br)cc1` (centres unmarked) [Example 26, 4-acetyl-5-(4-bromo-phenyl)-1-[2-(4-bromo-phenyl)-ethyl]-3-hydroxy-1,5-dihydro-pyrrol-2-one], the IC50 at UCH-L1 is greater than 200 µM; on human USP7, 2.7 µM.

Consider `CC(=O)C1=C(O)C(=O)N(CCc2ccc(Cl)c(Cl)c2)C1c1ccc(Br)cc1` (centres unmarked) [Example 28, 4-acetyl-5-(4-bromo-phenyl)-1-[2-(3,4-dichloro-phenyl)-ethyl]-3-hydroxy-1,5-dihydro-pyrrol-2-one], for which the IC50 on UCH-L1 was greater than 200 µM; at human USP7, 1.61 µM.

Regarding `COc1cccc(CCN2C(=O)C(O)=C(C(C)=O)C2c2ccc(Br)cc2)c1` (centres unmarked) [Example 30, 4-acetyl-5-(4-bromo-phenyl)-3-hydroxy-1-[2-(3-methoxyphenyl)-ethyl]-1,5-dihydro-pyrrol-2-one], the IC50 on UCH-L1 was greater than 200 µM; at human USP7, 11.1 µM.

As to `COc1ccc(CCN2C(=O)C(O)=C(C(C)=O)C2c2ccc(Br)cc2)cc1` (centres unmarked) [Example 32, 4-acetyl-5-(4-bromo-phenyl)-3-hydroxy-1-[2-(4-methoxyphenyl)-ethyl]-1,5-dihydro-pyrrol-2-one], the IC50 at UCH-L1 is greater than 200 µM; at human USP7, 5.28 µM.

As to `CC(=O)C1=C(O)C(=O)N(CCc2ccc(F)cc2)C1c1ccc(Br)cc1` (centres unmarked) [Example 33, 4-acetyl-5-(4-bromo-phenyl)-3-hydroxy-1-[2-(4-fluorophenyl)-ethyl]-1,5-dihydro-pyrrol-2-one], the IC50 at UCH-L1 was greater than 200 µM; at human USP7 it was 3.05 µM.

For the molecule `CCOc1ccc(CCN2C(=O)C(O)=C(C(C)=O)C2c2ccc(Br)cc2)cc1` (centres unmarked) [Example 34, 4-acetyl-5-(4-bromo-phenyl)-3-hydroxy-1-[2-(4-ethoxy-phenyl)-ethyl]-1,5-dihydro-pyrrol-2-one], the IC50 on UCH-L1 was greater than 200 µM; at human USP7 it was 6.6 µM.

As for `CC(=O)C1=C(O)C(=O)N(CCc2ccccc2)C1c1ccc2c(c1)OCO2` (centres unmarked) [Example 37, 4-acetyl-5-benzo[1,3]dioxol-5-yl-3-hydroxy-1-phenethyl-1,5-dihydro-pyrrol-2-one], the IC50 was greater than 200 µM at UCH-L1 and 7.03 µM at human USP7.

In the case of `CC(=O)C1=C(O)C(=O)N(CCc2ccccc2)C1c1ccc(Br)c(Br)c1` (centres unmarked) [Example 41, 4-acetyl-5-(3,4-dibromo-phenyl)-3-hydroxy-1-phenethyl-1,5-dihydro-pyrrol-2-one], the IC50 on UCH-L1 was greater than 200 µM; at human USP7, 8.98 µM.

Consider `CC(=O)C1=C(O)C(=O)N(CCc2ccccc2)C1c1cccnc1Cl` (centres unmarked) [Example 42, 4-acetyl-5-(2-chloro-pyridin-3-yl)-3-hydroxy-1-phenethyl-1,5-dihydro-pyrrol-2-one], for which the IC50 is greater than 200 µM at UCH-L1 and 12 µM at human USP7.

In the case of `CC(=O)C1=C(O)C(=O)N(CCc2ccc(Br)cc2)C1c1ccc(Cl)cc1` (centres unmarked) [Example 45, 4-Acetyl-5-(4-chlorophenyl)-1-[2-(4-bromophenyl)-ethyl]-3-hydroxy-1,5-dihydro-pyrrol-2-one], the IC50 at UCH-L1 is greater than 200 µM; at human USP7, 4.2 µM.

Regarding `CC(=O)C1=C(O)C(=O)N(CCc2ccc(Cl)cc2)C1c1ccc(Cl)cc1` (centres unmarked) [Example 46, 4-Acetyl-5-(4-chlorophenyl)-1-[2-(4-chlorophenyl)-ethyl]-3-hydroxy-1,5-dihydro-pyrrol-2-one], the figures for the IC50 at UCH-L1 and at human USP7 were greater than 200 µM and 4.4 µM, respectively.

Regarding `CC(=O)C1=C(O)C(=O)N(CCc2ccc(Cl)cc2Cl)C1c1ccc(Br)cc1` (centres unmarked) [Example 47, 4-Acetyl-5-(4-bromophenyl)-1-[2-(2,4-dichlorophenyl)-ethyl]-3-hydroxy-1,5-dihydro-pyrrol-2-one], the IC50 is greater than 200 µM at UCH-L1 and 1.9 µM on human USP7.
